From US6476030B1, “Pyrazolo-triazine derivatives as ligands for GABA receptors” (Merck Sharp & Dohme Ltd., priority 1998, dated 2002) come the findings set out here.

By melting point is commonly meant the temperature of the solid-liquid transition. Turning to `Cn1ncnc1COc1nn2c(-c3ccc(F)cc3)nncc2c1-c1ccccc1F` [Example 41, 3-(2-Fluorophenyl)-7-(4-fluorophenyl)-2-(2-methyl-2H-[1,2,4]-triazol-3-ylmethoxy)pyrazolo[1,5-d][1,2,4]triazine], the melting point was found to be 191 °C.

`CCC(C)(C)c1c(OCc2ncnn2C)nn2c(-c3c(F)ccc(F)c3F)nncc12` [Example 43, 3-(1,1-Dimethylpropyl)-2-(2-methyl-2H-[1,2,4]triazol-3-ylmethoxy)-7-(2,3,6-trifluorophenyl)pyrazolo[1,5-d][1,2,4]triazine] displayed a melting point of 122 to 125 °C. The figure for `Cn1ncnc1COc1nn2c(-c3cccnc3)nncc2c1-c1ccccc1F` [Example 45, 3-(2-Fluorophenyl)-2-(2-methyl-2H-[1,2,4]triazol-3-ylmethoxy)-7-(pyridin-3-yl)pyrazolo[1,5-d][1,2,4]triazine] is 164 to 166 °C; for `CCn1ncnc1COc1nn2c(-c3ccccc3F)nncc2c1-c1ccncc1` [Example 46, 2-(2-Ethyl-2H-[1,2,4]triazol-3-ylmethoxy)-7-(2-fluorophenyl)-3-(pyridin-4-yl)pyrazolo[1,5-d][1,2,4]triazine] it is 214 to 217 °C. For `CCn1ncnc1COc1nn2c(-c3ccc(F)cc3)nncc2c1-c1ccccc1F` [Example 47, 2-(2-Ethyl-2H-[1,2,4]triazol-3-ylmethoxy)-3-(2-fluorophenyl)-7-(4-fluorophenyl)pyrazolo[1,5-d][1,2,4]triazine], the melting point amounted to 179 °C. The result for `CCCn1ncnc1COc1nn2c(-c3ccc(F)cc3)nncc2c1-c1ccccc1F` [Example 48, 3-(2-Fluorophenyl)-7-(4-fluorophenyl)-2-(2-propyl-2H-[1,2,4]triazol-3-ylmethoxy)pyrazolo[1,5-d][1,2,4]triazine] reads 148 °C; that for `Cn1ncnc1COc1nn2c(-c3c(F)cccc3F)nncc2c1-c1ccccc1F` [Example 49, 7-(2,6-Difluorophenyl)-3-(2-fluorophenyl)-2-(2-methyl-2H-[1,2,4]triazol-3-ylmethoxy)pyrazolo[1,5-d][1,2,4]triazine], 163 °C; that for `Cn1ncnc1COc1nn2c(-c3cccc(F)c3)nncc2c1-c1ccccc1F` [Example 51, 3-(2-Fluorophenyl)-7-(3-fluorophenyl)-2-(2-methyl-2H-[1,2,4]triazol-3-ylmethoxy)pyrazolo[1,5-d][1,2,4]triazine], 169 to 170 °C. For the compound `Cn1ncnc1COc1nn2c(-c3ccc(F)cc3F)nncc2c1-c1ccccc1F` [Example 52, 7-(2,4-Difluorophenyl)-3-(2-fluorophenyl)-2-(2-methyl-2H-[1,2,4]triazol-3-ylmethoxy)pyrazolo[1,5-d][1,2,4]triazine], the melting point lay in the range of 164 to 166 °C.

As to `Cn1ncnc1COc1nn2c(-c3ccccc3F)nncc2c1-c1ccccn1` [Example 53, 7-(2-Fluorophenyl)-2-(2-methyl-2H-[1,2,4]triazol-3-ylmethoxy)-3-(pyridin-2-yl)pyrazolo[1,5-d][1,2,4]triazine], the melting point fell in the range of 186 to 187 °C. The figure for `Cn1ncnc1COc1nn2c(-c3ccccc3F)nncc2c1-c1cccs1` [Example 54, 7-(2-Fluorophenyl)-2-(2-methyl-2H-[1,2,4]triazol-3-ylmethoxy)-3-(thien-2-yl)pyrazolo[1,5-d][1,2,4]triazine] is 196 to 197 °C; for `Cn1ncnc1COc1nn2c(-c3ccccc3F)nncc2c1-c1ccco1` [Example 55, 7-(2-Fluorophenyl)-3-(furan-2-yl)-2-(2-methyl-2H-[1,2,4]triazol-3-ylmethoxy)pyrazolo[1,5-d][1,2,4]triazine] it is 188 to 190 °C.

The compound `Cn1ncnc1COc1nn2c(-c3ccc(F)cc3F)nncc2c1C(C)(C)C` [Example 56, 7-(2,4-Difluorophenyl)-3-(1,1-dimethylethyl)-2-(2-methyl-2H-[1,2,4]triazol-3-ylmethoxy)pyrazolo[1,5-d][1,2,4]triazine] gave a melting point of 118 °C.

In the case of `CCn1ncnc1COc1nn2c(-c3ccc(F)cc3F)nncc2c1C(C)(C)C` [Example 57, 7-(2,4-Difluorophenyl)-3-(1,1-dimethylethyl)-2-(2-ethyl-2H-[1,2,4]triazol-3-ylmethoxy)pyrazolo[1,5-d][1,2,4]triazine], the melting point stood at 145 °C. Take `CCn1ncnc1COc1nn2c(-c3ccccc3F)nncc2c1-c1ccccc1F` [Example 58, 2-(2-Ethyl-2H-[1,2,4]triazol-3-ylmethoxy)-3,7-bis(2-fluorophenyl)-pyrazolo[1,5-d][1,2,4]triazine]: the melting point was 164 °C. Consider `Cn1cnc(COc2nn3c(-c4ccccc4F)nncc3c2-c2ccccc2F)n1` [Example 59, 3,7-bis(2-Fluorophenyl)-2-(1-methyl-1H-[1,2,4]triazol-3-ylmethoxy)pyrazolo[1,5-d][1,2,4]triazine], for which the melting point stood at 184 °C. Compound `Cn1nncc1COc1nn2c(-c3ccccc3F)nncc2c1-c1ccccc1F` [Example 60, 3,7-bis(2-Fluorophenyl)-2-(3-methyl-3H-[1,2,3]triazol-4-ylmethoxy)pyrazolo[1,5-d][1,2,4]triazine] showed a melting point of 188 °C. The compound `Cn1cc(COc2nn3c(-c4ccccc4F)nncc3c2-c2ccccc2F)nn1` [Example 61, 3,7-bis(2-Fluorophenyl)-2-(1-methyl-1H-[1,2,3]triazol-4-ylmethoxy)pyrazolo[1,5-d][1,2,4]triazine] had a melting point of 175 °C. The result for `Cc1cccc(COc2nn3c(-c4ccccc4F)nncc3c2-c2ccccc2F)n1` [Example 62, 3,7-bis(2-Fluorophenyl)-2-(6-methylpyridin-2-ylmethoxy)pyrazolo[1,5-d][1,2,4]triazine] reads 197 °C; that for `Fc1ccccc1-c1c(OCc2cccnc2)nn2c(-c3ccccc3F)nncc12` [Example 63, 3,7-bis(2-Fluorophenyl)-2-(pyridin-3-ylmethoxy)pyrazolo[1,5-d][1,2,4]triazine], 146 °C.

`Fc1ccccc1-c1c(OCc2ccncc2)nn2c(-c3ccccc3F)nncc12` [Example 64, 3,7-bis(2-Fluorophenyl)-2-(pyridin-4-ylmethoxy)pyrazolo[1,5-d][1,2,4]triazine] returned a melting point of 143 °C. The result for `Fc1ccccc1-c1c(OCc2ncccc2OC2CCC2)nn2c(-c3ccccc3F)nncc12` [Example 65, 2-(3-Cyclobutyloxypyridin-2-ylmethoxy)-3,7-bis(2-fluorophenyl)-pyrazolo[1,5-d][1,2,4]triazine] reads 66 °C. The result for `COc1cccnc1COc1nn2c(-c3ccccc3F)nncc2c1-c1ccccc1F` [Example 67, 3,7-bis(2-Fluorophenyl)-2-(3-methoxypyridin-2-ylmethoxy)pyrazolo[1,5-d][1,2,4]triazine] reads 143 °C; that for `CCOc1cccnc1COc1nn2c(-c3ccccc3F)nncc2c1-c1ccccc1F` [Example 68, 2-(3-Ethoxypyridin-2-ylmethoxy)-3,7-bis(2-fluorophenyl)pyrazolo[1,5-d][1,2,4]triazine], 77 °C. Compound `Cc1cccnc1COc1nn2c(-c3ccccc3F)nncc2c1-c1ccccc1F` [Example 69, 3,7-bis(2-Fluorophenyl)-2-(3-methylpyridin-2-ylmethoxy)pyrazolo[1,5-d][1,2,4]triazine] displayed a melting point of 69 °C. As for `Cc1csc(COc2nn3c(-c4ccccc4F)nncc3c2-c2ccccc2F)n1` [Example 71, 3,7-bis(2-Fluorophenyl)-2-(4-methylthiazol-2-ylmethoxy)pyrazolo[1,5-d][1,2,4]triazine], the melting point was 176 °C. With `Cc1cnc(COc2nn3c(-c4ccccc4F)nncc3c2-c2ccccc2F)s1` [Example 72, 3,7-bis(2-Fluorophenyl)-2-(5-methylthiazol-2-ylmethoxy)pyrazolo[1,5-d][1,2,4]triazine], the melting point came to 154 °C. In turn, `Fc1ccccc1-c1c(OCc2cscn2)nn2c(-c3ccccc3F)nncc12` [Example 73, 3,7-bis(2-Fluorophenyl)-2-(thiazol-4-ylmethoxy)pyrazolo[1,5-d][1,2,4]triazine] showed a melting point of 212 °C.

Compound `CC(C)n1ncnc1COc1nn2c(-c3ccccc3F)nncc2c1-c1ccccc1F` [Example 74, 3,7-bis(2-Fluorophenyl)-2-(2-isopropyl-2H-[1,2,4]triazol-3-ylmethoxy)-pyrazolo[1,5-d][1,2,4]triazine] registered a melting point of 179 °C. The result for `Fc1ccccc1-c1c(OCc2cccnn2)nn2c(-c3ccccc3F)nncc12` [Example 76, 3,7-bis(2-Fluorophenyl)-2-(pyridazin-3-ylmethoxy)pyrazolo[1,5-d][1,2,4]triazine] reads 210 °C; that for `Fc1ccccc1-c1c(OCc2ccncn2)nn2c(-c3ccccc3F)nncc12` [Example 78, 3,7-bis(2-Fluorophenyl)-2-(pyrimidin-4-ylmethoxy)pyrazolo[1,5-d][1,2,4]triazine], 189 °C. The figure for `Fc1ccccc1-c1c(OCc2cnc3ccccc3n2)nn2c(-c3ccccc3F)nncc12` [Example 79, 3,7-bis(2-Fluorophenyl)-2-(quinoxalin-2-ylmethoxy)pyrazolo[1,5-d][1,2,4]triazine] is 209 °C; for `Cn1ncnc1COc1nn2c(-c3ccoc3)nncc2c1-c1ccccc1F` [Example 80, 3-(2-Fluorophenyl)-7-(furan-3-yl)-2-(2-methyl-2H-[1,2,4]triazol-3-ylmethoxy)pyrazolo[1,5-d][1,2,4]triazine] it is 148 °C.

As for `Cn1c(COc2nn3c(-c4ccccc4F)nncc3c2-c2ccccc2F)nc2ccccc21` [Example 81, 3,7-bis(2-Fluorophenyl)-2-(1-methyl-1H-benzimidazol-2-ylmethoxy)pyrazolo[1,5-d][1,2,4]triazine], the melting point was in the range of 218 to 220 °C. Compound `Fc1ccccc1-c1c(OCc2nc3ccccn3n2)nn2c(-c3ccccc3F)nncc12` [Example 82, 3,7-bis(2-Fluorophenyl)-2-([1,2,4]triazolo[1,5-a]pyridin-2-ylmethoxy)pyrazolo[1,5-d][1,2,4]triazine] came in with a melting point of 208 to 209 °C.
